Source: PMC3494675, “Structure-Function Analysis of the Glioma Targeting NFL-TBS.40-63 Peptide Corresponding to the Tubulin-Binding Site on the Light Neurofilament Subunit” (PLoS ONE, 2012)
Peptide text beside a SMILES is read from it. * marks the point of attachment. Biotin = O=C1N[C@H]2[C@H](CS[C@H]2CCCCC(=O)*)N1

How the values were obtained:
[1] = system: T98G human glioblastoma cells; assay: Peptide incorporation into T98G cells (immunocytochemistry, cell counting); assay type: cell-based; conditions: 6 hours; for Peptide incorporation (% of cells): T98G cells, 10 µM biotinylated peptide, Alexa-labeled avidin/streptavidin fluorescence microscopy, minimum 200 cells per experiment, mean ± S.E.M., triplicated
Procedure: (§1) Cells containing the biotinylated peptide were detected using Alexa-labeled avidin (green fluorescence) and those displaying a normal or a destroyed MT network were detected with an anti-tubulin antibody (red fluorescence) ( Figure 1A-B ). Then, we counted a minimum of 200 cells per slide containing or not the peptide, and with a normal or destroyed microtubule network ( Figure 1C ). As illustrated on Figure 1A glioblastoma cells contain a rich MT network. […] Cells were plated on cover slips and cultured in media containing biotinylated peptides (10 μM) for 6 hours. […] The cells were then incubated during 10 min in a 0.5% triton X-100 permeabilization solution, and washed 3 times in PBS. Next, they were incubated in a blocking solution (PBS 5% BSA) for 15 min, then incubated with mouse anti-ß-tubulin antibody (Sigma) 1/200 overnight. Tubulin and biotinylated peptides were localized using respectively Alexa 568 nm anti-mouse antibody and streptavidin Alexa 488 nm (Molecular Probes) 1/200 for 1 hour, followed by washing in PBS. […] Sigma) for 5 min, washed twice with PBS, then cover slips were mounted with an antifading solution. Observations were performed with an Olympus confocal microscope (BX50) using Fluoview.3.1. Software or a Leica DMI6000 inverted microscope and analyzed with Metamorph 7.1.7.0. software. We counted cells containing the peptide and cells displaying a destroyed MT network. Experiments were repeated at least three times, and a minimum of 200 cells was scored during each experiment.

[2] = system: T98G human glioblastoma cells; assay: Disintegration of the microtubule network in T98G cells (anti-tubulin immunostaining, cell counting); assay type: cell-based; conditions: T98G cells, 10 µM biotinylated peptide, 6 hours; anti-tubulin immunostaining; minimum 200 cells per experiment; mean ± S.E.M., triplicated
Procedure: as §1

Structure (SMILES)	Peptide incorporation (% of cells) [1]	Disintegration of MT (% of cells) [2]	Cell penetration / internalization in T98G cells (in words) ([1]; 10 µM, immunocytochemistry, compared to original NFL-TBS.40-63)
CC(C)C[C@H](NC(=O)[C@H](CO)NC(=O)[C@H](CO)NC(=O)[C@H](CO)NC(=O)[C@@H](NC(=O)[C@@H]1CCCN1C(=O)[C@H](C)NC(=O)[C@H](CO)NC(=O)[C@H](Cc1ccc(O)cc1)NC(=O)[C@H](CO)NC(=O)[C@H](CO)NC(=O)[C@H](Cc1ccc(O)cc1)NC(=O)CCCC[C@@H]1SC[C@@H]2NC(=O)N[C@@H]21)C(C)C)C(=O)N[C@@H](CO)C(=O)N[C@H](C(=O)N[C@@H](CCCNC(=N)N)C(=O)N[C@@H](CCCNC(=N)N)C(=O)N[C@@H](CO)C(=O)N[C@@H](Cc1ccc(O)cc1)C(=O)N[C@@H](CO)C(=O)N[C@@H](CO)C(=O)N[C@@H](CO)C(=O)N[C@@H](CO)C(=O)NCC(=O)N[C@@H](CO)C(N)=O)C(C)C [Ala6Ala] (Biotin-YSSYSAPVSSSLSVRRSYSSSSGS-NH2)	50.3±4.6 % of cells	48.1±6.6 % of cells	–
CC(C)C[C@H](NC(=O)[C@H](CO)NC(=O)[C@H](CO)NC(=O)[C@H](CO)NC(=O)[C@@H](NC(=O)[C@@H]1CCCN1C(=O)[C@H](C)NC(=O)[C@H](CO)NC(=O)[C@H](Cc1ccc(O)cc1)NC(=O)[C@H](CO)NC(=O)[C@H](CO)NC(=O)[C@H](Cc1ccc(O)cc1)NC(=O)CCCC[C@@H]1SC[C@@H]2NC(=O)N[C@@H]21)C(C)C)C(=O)N[C@@H](CO)C(=O)N[C@H](C(=O)N[C@@H](C)C(=O)N[C@@H](CCCNC(=N)N)C(=O)N[C@@H](CO)C(=O)N[C@@H](Cc1ccc(O)cc1)C(=O)N[C@@H](CO)C(=O)N[C@@H](CO)C(=O)N[C@@H](CO)C(=O)N[C@@H](CO)C(=O)NCC(=O)N[C@@H](CO)C(N)=O)C(C)C [Arg15Ala] (Biotin-YSSYSAPVSSSLSVARSYSSSSGS-NH2)	18.1±1.3 % of cells	25.5±6.3 % of cells	–
CC(C)C[C@H](NC(=O)[C@H](CO)NC(=O)[C@H](CO)NC(=O)[C@H](CO)NC(=O)[C@@H](NC(=O)[C@@H]1CCCN1C(=O)[C@H](C)NC(=O)[C@H](CO)NC(=O)[C@H](Cc1ccc(O)cc1)NC(=O)[C@H](CO)NC(=O)[C@H](CO)NC(=O)[C@H](Cc1ccc(O)cc1)NC(=O)CCCC[C@@H]1SC[C@@H]2NC(=O)N[C@@H]21)C(C)C)C(=O)N[C@@H](CO)C(=O)N[C@H](C(=O)N[C@@H](CCCNC(=N)N)C(=O)N[C@@H](C)C(=O)N[C@@H](CO)C(=O)N[C@@H](Cc1ccc(O)cc1)C(=O)N[C@@H](CO)C(=O)N[C@@H](CO)C(=O)N[C@@H](CO)C(=O)N[C@@H](CO)C(=O)NCC(=O)N[C@@H](CO)C(N)=O)C(C)C [Arg16Ala] (Biotin-YSSYSAPVSSSLSVRASYSSSSGS-NH2)	0 % of cells	15.6±3.0 % of cells	–
CC(C)C[C@H](NC(=O)[C@H](CO)NC(=O)[C@H](CO)NC(=O)[C@H](CO)NC(=O)[C@@H](NC(=O)[C@@H]1CCCN1C(=O)[C@H](C)NC(=O)[C@H](CO)NC(=O)[C@H](Cc1ccc(O)cc1)NC(=O)[C@H](CO)NC(=O)[C@H](CO)NC(=O)[C@H](Cc1ccc(O)cc1)NC(=O)CCCC[C@@H]1SC[C@@H]2NC(=O)N[C@@H]21)C(C)C)C(=O)N[C@@H](CO)C(=O)N[C@H](C(=O)N[C@@H](CCCNC(=N)N)C(=O)N[C@@H](CCCCN)C(=O)N[C@@H](CO)C(=O)N[C@@H](Cc1ccc(O)cc1)C(=O)N[C@@H](CO)C(=O)N[C@@H](CO)C(=O)N[C@@H](CO)C(=O)N[C@@H](CO)C(=O)NCC(=O)N[C@@H](CO)C(N)=O)C(C)C [Arg16Lys] (Biotin-YSSYSAPVSSSLSVRKSYSSSSGS-NH2)	32.9±1.3 % of cells	36.9±0.9 % of cells	–
CC(C)C[C@H](NC(=O)[C@H](CO)NC(=O)[C@H](CO)NC(=O)[C@H](CO)NC(=O)[C@@H](NC(=O)[C@@H]1CCCN1C(=O)[C@H](C)NC(=O)[C@H](CO)NC(=O)[C@H](Cc1ccc(O)cc1)NC(=O)[C@H](CO)NC(=O)[C@H](CO)NC(=O)[C@H](Cc1ccc(O)cc1)NC(=O)CCCC[C@@H]1SC[C@@H]2NC(=O)N[C@@H]21)C(C)C)C(=O)N[C@@H](CO)C(=O)N[C@H](C(=O)N[C@@H](CCCNC(=N)N)C(=O)N[C@@H](CCCNC(=N)N)C(=O)N[C@@H](CO)C(=O)N[C@@H](Cc1ccc(O)cc1)C(=O)N[C@@H](CO)C(=O)N[C@@H](CO)C(=O)N[C@@H](CO)C(=O)N[C@@H](CO)C(=O)N[C@@H](C)C(=O)N[C@@H](CO)C(N)=O)C(C)C [Gly23Ala] (Biotin-YSSYSAPVSSSLSVRRSYSSSSAS-NH2)	6.2±6.2 % of cells	16.9±4.5 % of cells	only weak cell-penetrating activity
CC(C)[C@H](NC(=O)[C@H](CO)NC(=O)[C@H](C)NC(=O)[C@H](CO)NC(=O)[C@H](CO)NC(=O)[C@H](CO)NC(=O)[C@@H](NC(=O)[C@@H]1CCCN1C(=O)[C@H](C)NC(=O)[C@H](CO)NC(=O)[C@H](Cc1ccc(O)cc1)NC(=O)[C@H](CO)NC(=O)[C@H](CO)NC(=O)[C@H](Cc1ccc(O)cc1)NC(=O)CCCC[C@@H]1SC[C@@H]2NC(=O)N[C@@H]21)C(C)C)C(=O)N[C@@H](CCCNC(=N)N)C(=O)N[C@@H](CCCNC(=N)N)C(=O)N[C@@H](CO)C(=O)N[C@@H](Cc1ccc(O)cc1)C(=O)N[C@@H](CO)C(=O)N[C@@H](CO)C(=O)N[C@@H](CO)C(=O)N[C@@H](CO)C(=O)NCC(=O)N[C@@H](CO)C(N)=O [Leu12Ala] (Biotin-YSSYSAPVSSSASVRRSYSSSSGS-NH2)	0 % of cells	15.5±2.8 % of cells	–
CC(C)[C@H](NC(=O)[C@H](CO)NC(=O)[C@@H](NC(=O)[C@H](CO)NC(=O)[C@H](CO)NC(=O)[C@H](CO)NC(=O)[C@@H](NC(=O)[C@@H]1CCCN1C(=O)[C@H](C)NC(=O)[C@H](CO)NC(=O)[C@H](Cc1ccc(O)cc1)NC(=O)[C@H](CO)NC(=O)[C@H](CO)NC(=O)[C@H](Cc1ccc(O)cc1)NC(=O)CCCC[C@@H]1SC[C@@H]2NC(=O)N[C@@H]21)C(C)C)C(C)C)C(=O)N[C@@H](CCCNC(=N)N)C(=O)N[C@@H](CCCNC(=N)N)C(=O)N[C@@H](CO)C(=O)N[C@@H](Cc1ccc(O)cc1)C(=O)N[C@@H](CO)C(=O)N[C@@H](CO)C(=O)N[C@@H](CO)C(=O)N[C@@H](CO)C(=O)NCC(=O)N[C@@H](CO)C(N)=O [Leu12Val] (Biotin-YSSYSAPVSSSVSVRRSYSSSSGS-NH2)	58.6±5.0 % of cells	43.8±1.7 % of cells	–
CC(C)C[C@H](NC(=O)[C@H](CO)NC(=O)[C@H](CO)NC(=O)[C@H](CO)NC(=O)[C@@H](NC(=O)[C@H](C)NC(=O)[C@H](C)NC(=O)[C@H](CO)NC(=O)[C@H](Cc1ccc(O)cc1)NC(=O)[C@H](CO)NC(=O)[C@H](CO)NC(=O)[C@H](Cc1ccc(O)cc1)NC(=O)CCCC[C@@H]1SC[C@@H]2NC(=O)N[C@@H]21)C(C)C)C(=O)N[C@@H](CO)C(=O)N[C@H](C(=O)N[C@@H](CCCNC(=N)N)C(=O)N[C@@H](CCCNC(=N)N)C(=O)N[C@@H](CO)C(=O)N[C@@H](Cc1ccc(O)cc1)C(=O)N[C@@H](CO)C(=O)N[C@@H](CO)C(=O)N[C@@H](CO)C(=O)N[C@@H](CO)C(=O)NCC(=O)N[C@@H](CO)C(N)=O)C(C)C [Pro7Ala] (Biotin-YSSYSAAVSSSLSVRRSYSSSSGS-NH2)	16.7±4.6 % of cells	26.6±5.9 % of cells	–
CC(C)C[C@H](NC(=O)[C@H](CO)NC(=O)[C@H](CO)NC(=O)[C@H](CO)NC(=O)[C@@H](NC(=O)[C@@H]1CCCN1C(=O)[C@H](C)NC(=O)[C@H](CO)NC(=O)[C@H](Cc1ccc(O)cc1)NC(=O)[C@H](CO)NC(=O)[C@H](C)NC(=O)[C@H](Cc1ccc(O)cc1)NC(=O)CCCC[C@@H]1SC[C@@H]2NC(=O)N[C@@H]21)C(C)C)C(=O)N[C@@H](CO)C(=O)N[C@H](C(=O)N[C@@H](CCCNC(=N)N)C(=O)N[C@@H](CCCNC(=N)N)C(=O)N[C@@H](CO)C(=O)N[C@@H](Cc1ccc(O)cc1)C(=O)N[C@@H](CO)C(=O)N[C@@H](CO)C(=O)N[C@@H](CO)C(=O)N[C@@H](CO)C(=O)NCC(=O)N[C@@H](CO)C(N)=O)C(C)C [Ser2Ala] (Biotin-YASYSAPVSSSLSVRRSYSSSSGS-NH2)	5.9±6.4 % of cells	23.5±1.1 % of cells	–
CC(C)C[C@H](NC(=O)[C@H](CO)NC(=O)[C@H](CO)NC(=O)[C@H](CO)NC(=O)[C@@H](NC(=O)[C@@H]1CCCN1C(=O)[C@H](C)NC(=O)[C@H](CO)NC(=O)[C@H](Cc1ccc(O)cc1)NC(=O)[C@H](C)NC(=O)[C@H](CO)NC(=O)[C@H](Cc1ccc(O)cc1)NC(=O)CCCC[C@@H]1SC[C@@H]2NC(=O)N[C@@H]21)C(C)C)C(=O)N[C@@H](CO)C(=O)N[C@H](C(=O)N[C@@H](CCCNC(=N)N)C(=O)N[C@@H](CCCNC(=N)N)C(=O)N[C@@H](CO)C(=O)N[C@@H](Cc1ccc(O)cc1)C(=O)N[C@@H](CO)C(=O)N[C@@H](CO)C(=O)N[C@@H](CO)C(=O)N[C@@H](CO)C(=O)NCC(=O)N[C@@H](CO)C(N)=O)C(C)C [Ser3Ala] (Biotin-YSAYSAPVSSSLSVRRSYSSSSGS-NH2)	0.8±1.2 % of cells	19.1±0.9 % of cells	–
